Measurements reported in patent EP0263202A1, “Inhibition of viral protease activity by peptide halomethyl ketones” (priority 1986, dated 1988).
Residues, ends and D or L forms follow the SMILES beside them.

Legend:
rhinovirus type 1A = assay: plaque inhibition assay; type: cell-based, Human rhinovirus type 1A; details: HeLa cells, concentration at which activity was noted
Procedure: (§1) One assay, known as a viral cleavage assay, involves comparison of patterns of protein synthesis (as visualized by incorporation of labeled amino acids) in virus-infected HeLa cells grown in the presence and absence of a selected test compound. A second assay, known as a plaque inhibition assay, involves an assessment of the effects of test compounds upon the infectivity of virus in agar-overlaid cell cultures. Toxic effects of a test compound, if any, will also be observed during the incubation period of the plaque inhibition assay. Both assays are described in greater detail below.
In this assay, cultured HeLa cells were grown to confluency in 60 mm plastic petri dishes. Each culture was then infected with approximately 300 plaque-forming units of virus. Human rhinovirus type 1A was used in the test reported below. The virus employed in this experiment was allowed to absorb to the cells for 30 minutes at 34.5°.
The compound tested was dissolved in ethanol at a concentration 100 times greater than the highest concentration to be tested. The resulting solution was then diluted 1:100 into a solution of McCoy's medium containing 5% heat-inactivated fetal calf serum and 0.38% agar. Two-fold dilutions were then made into agar medium. […]

human HeLa-O cells = type: cell-based
Procedure: as §1
When plaques in control cultures were large enough to be observed, yet still relatively discrete, all cultures were stained with 1% crystal violet. Plaques appeared as clear areas in a deep purple field of uninfected cells.

subtilisin BPNʹ = details: ranking among a series of peptide chloromethyl ketones; cited from earlier work

Row | Compound | Antiviral activity, as scored by 90% plaque reduction (rhinovirus type 1A) [µg/mL] | cytotoxicity first detected at a concentration (human HeLa-O cells) | inhibition of subtilisin BPNʹ (subtilisin BPNʹ)
1 | CC(C)C[C@H](NC(=O)[C@H](CC(C)C)NC(=O)CNC(=O)[C@H](Cc1ccccc1)NC(=O)OCc1ccccc1)C(=O)CCl [Z-Phe-Gly-Leu-LeuCH₂Cl, N-carbobenzoxy-L-phenylalanyl-L-glycyl-L-leucyl-L-leucine chloromethyl ketone] (HELM PEPTIDE1{[O=C(OCc1ccccc1)[*:2]].F.G.L.L.[ClC[*:1]]}$$$$V2.0) | 1 | about 15 µg/mL | 
2 | acetyl-L-phenyl-alanyl-L-glycyl-L-alanyl-L-leucyl chloromethyl ketone (FGAL; HELM PEPTIDE1{[ac].F.G.A.L.[ClC[*:1]]}$$$$V2.0; SMILES CC(=O)N[C@@H](Cc1ccccc1)C(=O)NCC(=O)N[C@@H](C)C(=O)N[C@@H](CC(C)C)C(=O)CCl) [Ac-Phe-Gly-Ala-LeuCH₂Cl] |  |  | fastest inhibitor
